The values that follow come from ChEMBL document CHEMBL1146927, “Semi-synthetic preparation of the rare, cytotoxic, deep-sea sourced sponge metabolites discorhabdins P and U” (Bioorg Med Chem Lett, 2006).

Assay [1] deals with Bacillus subtilis. Put plainly: Zone of Bacillus subtilis inhibition at 30 ug. The assay is classed as functional.
The subject of assay [2] is P388. The assay can be described thus: Antiproliferative activity against murine P388D1 cell line. The assay is classed as functional, cell-based. The settings on record: Mus musculus.
Assay [3] has as its system Escherichia coli. Put plainly: Zone of Escherichia coli inhibition at 30 ug. The assay is classed as functional.

In brackets after ≈: the same amount, converted by molar mass.

The term IC50 denotes the concentration that inhibits the measured activity by half. Read a low IC50 as greater potency. Take `CSC1=CC(=O)C(Br)=C[C@]12C=CNC1=C2C2=NCCc3c[nH]c(c32)C1=O`: the inhibition zone (IZ) in assay [1] amounted to 3 mm; in assay [3], 0 mm. The IC50 in assay [2] was 0.081 µg/mL (≈ 0.189 µM).
As for `O=C1C=C(SC(=O)c2ccccc2)[C@@]2(C=CNC3=C2C2=NCCc4cn(C(=O)c5ccccc5)c(c42)C3=O)C=C1Br`, the inhibition zone (IZ) in assay [1] and in assay [3] was 0 mm throughout. Further, the IC50 in assay [2] stood at 0.918 µg/mL (≈ 1.47 µM).
Regarding `O=C1C=C2S[C@H]3C[C@]2(C=C1Br)C1=C(N3)C(=O)c2[nH]cc3c2C1=NCC3` [(+)-DISCORHABDIN B], the inhibition zone (IZ) in assay [1] was 6 mm; in assay [3], 1 mm. In assay [2], this compound came in with an IC50 of 0.044 µg/mL (≈ 0.106 µM).
The matching figures for `O=C1C(Br)=CC2(C=C1Br)CCNC1=C2C2=NCCc3c[nH]c(c32)C1=O` [DISCORHABDIN C]: 8 mm, 1 mm and 0.062 µg/mL (≈ 0.134 µM).
As for `CSC1=CC(=O)C(Br)=C[C@]12C=CNC1=C2C2=NCCc3cn(C)c(c32)C1=O` [DISCORHABDIN U], the inhibition zone (IZ) in assay [1] worked out at 3 mm; in assay [3], 0 mm. This compound also showed an IC50 in assay [2] of 0.089 µg/mL (≈ 0.201 µM).
As to `Cn1cc2c3c1C(=O)C1=C(C3=NCC2)C2(C=C(Br)C(=O)C(Br)=C2)CCN1` [DISCORHABDIN], the inhibition zone (IZ) in assay [1] stood at 8 mm; in assay [3], 0 mm. This compound also came in with an IC50 in assay [2] of 0.182 µg/mL (≈ 0.381 µM).
